“Also recorded” adds a separate entry of the source.
Legend:
Type in all cases: cell-based, human
GST mRNA = GST mRNA expression by TaqMan real-time PCR in skin fibroblast cell models
Source text: (§1) Total cellular RNA is isolated using Genelute Mammalian Total RNA Kit (Sigma-Aldrich) according to the manufacturer's instructions. […] Standard curves are constructed with serial dilutions of control sample and analyzed using ABI software. Data are normalized against a house keeping gene, 18S ribosomal RNA. Gene expression is quantified by ^ΔΔCt method where fold of induction=2^-ΔΔ[…]., Analysis of relative gene expression data using real-time quantitative PCR and the 2(-Delta Delta C(T)) Method. Methods 2001. 25, 402-408).

UGT mRNA = UGT mRNA expression by TaqMan real-time PCR in skin fibroblast cell models
Source text: as §1

NQO1 mRNA = NQO1 mRNA expression by TaqMan real-time PCR in skin fibroblast cell models
Source text: as §1

GST (GSTA1) = test: GST protein expression by immunoblotting in skin fibroblast cell models; conditions: 24 h
Description: (§2) Treated and control cells are washed twice with ice cold phosphate buffered saline (PBS) and then incubated for 30 min in the Nonidet P-40 (NP-40) buffer (20 mM Tris-HCl, pH 8, 150 mM NaCl, 10% glycerol, 1% NP-40) containing one tablet of complete mini-EDTA-free protease inhibitor cocktail (Roche) in 10 ml buffer. Cells are harvested by scraping and the homogenate is centrifuged at 13,684 g at 4° C. for 15 min. The supernatants are collected and frozen at −80° C. The protein concentrations are determined using Bradford reagent (Sigma) according to the manufacturer's instructions. 20 μg of protein lysate is resolved by 10% SDS-polyacrylamide gel and transferred onto polyvinylidenedifluoride membranes (Bio-Rad) with a semidry transfer cell (Trans-Blot; Bio-Rad). Membranes are blocked for 1 hour at room temperature or overnight at 4° C. with Marvel fat-free milk powder (5% w/v), Tween 20 (0.05%, v/v) in PBS. Proteins of interest are visualized by exposing membranes to primary antibodies in milk for 2 hours at room temperature. Dilutions of antibodies are rabbit polyclonal GSTA1, 1:2000, goat polyclonal NQO1 1:1000 and goat polyclonal UGT1A 1:1000. Following primary antibody incubation membranes are incubated with suitable HRP-conjugated secondary antibody and signals are detected using an enhanced chemiluminescence kit (GE Healthcare) according to manufacturer's instructions. β-actin level is determined as loading control and bands are visualized using Fujifilm LAS3000 Imager.

NQO1 = NQO1 protein expression by immunoblotting in skin fibroblast cell models; conditions: 24 h
Description: as §2

UGT (UGT1A) = test: UGT protein expression by immunoblotting in skin fibroblast cell models; conditions: 24 h
Description: as §2

[1] = 1 month old cell model, 5, 10, 20 μM
[2] = 1 month old cell model, control=1
[3] = adult cell model, highest concentration (20 μM), control=1
[4] = cell model, all concentrations tested

Molecule | upregulation of GST mRNA compared to control (GST mRNA; [2]) | GST mRNA expression relative to control (GST mRNA; adult cell model, 5, 10, 20 μM) | UGT mRNA expression relative to control (UGT mRNA; adult cell model, 5, 10, 20 μM) | NQO1 mRNA expression relative to control (NQO1 mRNA; [1]) | GST protein expression (immunoblot, ratio to beta-actin) (GST (GSTA1); adult cell model, 5, 10, 20 μM) | NQO1 protein expression (immunoblot, ratio to beta-actin) (NQO1; adult cell model, higher dose) | GST mRNA expression relative to control (GST mRNA; infant cell models) | NQO1 mRNA expression relative to control (NQO1 mRNA; adult cell model, 5, 10, 20 μM) | NQO1 mRNA expression relative to control (NQO1 mRNA; infant cell models) | GST protein expression (immunoblot, ratio to beta-actin) (GST (GSTA1); cell model, higher doses) | UGT protein expression (immunoblot, ratio to beta-actin) (UGT (UGT1A); cell model, higher doses) | NQO1 protein expression (immunoblot, ratio to beta-actin) (NQO1; cell model, higher doses) | other results
O=c1c(O)c(-c2ccc(O)c(O)c2)oc2cc(O)cc(O)c12 [quercetin] | 3.9 fold | significant dose-dependent increase | significant dose-dependent increase | significantly increased | increases | significant upregulation | – | – | – | – | – | – | GST mRNA expression relative to control (GST mRNA; [1]): significantly increased; upregulation of GST mRNA (GST mRNA; [3]): 7.4 fold; GST mRNA expression relative to control (GST mRNA; [4]): do not demonstrate any significant changes; upregulation of UGT mRNA (UGT mRNA; [3]): 5.5 fold; UGT mRNA expression relative to control (UGT mRNA; [4]): do not demonstrate any significant changes; upregulation of NQO1 mRNA compared to control (NQO1 mRNA; [2]): 7.2 fold; NQO1 mRNA expression relative to control (NQO1 mRNA; [4]): do not demonstrate any significant changes
C[S+]([O-])CCCCN=C=S (stereo not drawn) [sulforaphane, 4-methylsulfinylbutyl isothiocyanate] | – | significant increase | significant increase | – | – | – | significantly increased; also recorded: significant increases | significant increase | significant increases | significantly upregulated | significantly upregulated | significantly upregulated | increase in NQO1 mRNA compared to control (NQO1 mRNA; infant cell models, control=1): 6-35 fold; UGT protein expression (immunoblot, ratio to beta-actin) (UGT (UGT1A); [1]): significant induction; UGT protein expression (immunoblot, ratio to beta-actin) (UGT (UGT1A); adult cell model, 5, 10, 20 μM): affected; NQO1 protein expression (immunoblot, ratio to beta-actin) (NQO1; adult cell model, 5, 10, 20 μM): significant upregulation
catechin | 3.7 fold | dose-response upregulation | an increase | unaffected | increases | significant upregulation | significant increases | dose-response upregulation | significant increases | significantly upregulated | significantly upregulated | significantly upregulated | UGT mRNA expression relative to control (UGT mRNA; [1]): unaffected; increase in NQO1 mRNA expression (NQO1 mRNA; cell model, control=1): 4.5 fold
